From patent US6809208B2, “3-Arylbenzofuranones with electron-withdrawing substituents as stabilizers” (Ciba Specialty Chemicals Corporation, priority 2000, dated 2004)

How the values were obtained:
[1] = Stabilization of polycarbonate (Weather-O-Meter exposure); settings: 0.30% stabilizer; Weather-O-Meter WOM CI 65; without stabilizer 30.2
Experimental: 1.0 kg of a polycarbonate powder which has been dried for 8 hours at 120° C. in a vacuum drying oven (Lexan®145, of General Electric) is charged with the stabilizers listed in Table 21 and is mixed for 2 minutes in a Henschel mixer. This mixture is then extruded in a Schwabenthan extruder at a maximum of 280° C. The polymer string is then granulated. Using an injection moulding machine, plates having a layer thickness of 2 mm are then moulded from the granulate so obtained at a maximum of 300° C. These plates are then irradiated in a Weather-O-Meter (WOM CI 65) for 2500 hours at a black standard temperature of 63° C., at a dry/wet cycle of 102/18 minutes and at an intensity of 0.35 W/m^2 at 340 nm. The yellowness index (YI) of these plates is then determined according to ASTM D 1925-70. Low YI values denote little discoloration, high YI values high discoloration of the plates. […]

[2] = Stabilization of multiple-extruded polypropylene at high temperature; parameters: unit not given here; settings: measured at 230° C./2.16 kg
Experimental: This blend is then extruded in an extruder having a cylinder diameter of 20 mm and a length of 400 mm at 100 rpm, the 3 heating zones being adjusted to the following temperatures: 280, 320, 340° C. The extrudate is cooled by drawing it through a water bath and is then granulated. This granulate is repeatedly extruded. […] A substantial increase in the melt index denotes pronounced chain degradation, i.e. poor stabilization.

[3] = Stabilisation of polybutylene terephthalate (impact strength in oven-ageing test at 160° C.); settings: for Impact strength after 360 h: without stabilizer 26
Experimental: 1.0 kg of a polybutylene terephthalate powder which has been dried for 10 hours at 100° C. in a vacuum drying oven (Crastin®S600, of Ciba Specialty Chemicals Inc.) is charged with the stabilizers listed in Table 20 and is mixed for 2 minutes in a Henschel mixer. This mixture is then extruded in a twin-screw extruder (type Berstorff) at a maximum of 250° C. and is then granulated. In an injection moulding apparatus, the granulate so obtained is moulded at a maximum of 260° C. to little rods 4×6 mm thick and 50 mm long. These little rods are then aged in a circulating air oven at 160° C. After 360 hours the impact strength of the rods is measured in KJ/m^2. The higher the values, the better the stabilization.

[4] = Stabilization of polyethylene during processing (Brabender plastograph); settings: 0.05 part compound and 0.05 part Irganox 1010 per 100 parts polyethylene; 220° C., 50 rpm; without compound 9.7
Experimental: 100 parts of polyethylene powder (Lupolen®5260 Z) are blended with 0.05 part of Irganox®1010 (pentaerythritol tetrakis[3-(3,5-di-tert-butyl-4-hydroxyphenyl)propionate]) and 0.05 part of a compound of Table 5 and the blend is kneaded in a Brabender plastograph at 220° C. and 50 rpm. During this time the kneading resistance is recorded continuously as torque. In the course of the kneading time the polymer begins to crosslink after prolonged constancy, as can be determined by the rapid increase in torque. The time taken until a marked increase in torque is shown in Table 5 as a measure of the stabilizing action. The longer this time is the better the stabilizing action.

[5] = Prevention of migration of the oxidized developer in a color photographic material (three layer test elements, interlayer scavenger); settings: 20 mg.m^−2 scavenger in interlayer; AGFA P-94 developing process; control without scavenger 0.293
Experimental: To evaluate compounds of this invention with respect to their ability as interlayer scavengers for oxidized developing agent, three layer photographic test elements are prepared by providing layers in the order indicated on a polyethylene-coated paper support:
(2) An interlayer containing:
The test elements are imagewise exposed through a step wedge with density increment 0.15 and thereafter subjected to the AGFA P-94 developing process.
Upon processing of the test elements, some oxidized developer is prone to migrate from the layer in which it is formed, for example the undermost, magenta-dye-providing layer, to the topmost layer containing the cyan-dye-forming coupler, thereby producing unwanted cyan dye. The amount of cyan dye that is generated depends on the ability of the interlayer to prevent the diffusion of oxidized developer.

[6] = Stabilization of multiple-extruded polypropylene; settings: 0.05% of compound; heating zones 260, 270, 280° C.; measured at 230° C./2.16 kg; without compound 17.5
Experimental: 1.3 kg of polypropylene powder (Profax 6501), which has been prestabilized with 0.025% of Irganox®1076 (n-octadecyl 3-[3,5-di-tert-butyl-4-hydroxyphenyl]propionate) (melt index 3.2 g/10 min, measured at 230° C./2.16 kg) are blended with 0.05% of Irganox®1010 (pentaerythritol tetrakis[3-(3,5-di-tert-butyl-4-hydroxyphenyl)propionate]), 0.05% of calcium stearate, 0.03% of DHT 4A® (Kyowa Chemical Industry Co., Ltd., [Mg4.5Al2(OH)13CO3.3.5H2O]) and 0.05% of compound of Table 4. This blend is then extruded in an extruder having a cylinder diameter of 20 mm and a length of 400 mm at 100 rpm, the 3 heating zones being adjusted to the following temperatures: 260, 270, 280° C. The extrudate is cooled by drawing it through a water bath and is then granulated. This granulate is repeatedly extruded. After 3 extrusions, the melt index is measured (at 230° C./2.16 kg). A substantial increase in the melt index denotes pronounced chain degradation, i.e. poor stabilization.

[7] = Light-colored SBR-vulcanisate, ozone atmosphere for 96 hours: crack formation; parameters: key: grade 0: Grade 0 denotes no cracks; grade 1 denotes narrow flat cracks; grade 2 denotes moderately broad, moderately deep cracks, clearly visible; grade 3 denotes broad and deep cracks; settings: 2.0 phr stabilizer, ozone 50 pphm, 40° C., dynamic elongation, without stabilizer grade 2
Experimental: (§1) 100 parts by weight of Cariflex®S-1502 (styrene/butadiene rubber, Shell) are processed at 60° C., in a mixing mill, with 30.0 parts by weight of Kronos®CL 220 [titanium dioxide (pigment), Kronos Titan GmbH], 30.0 parts by weight of Aktisil®MM [kaolin (filler), Hoffmann Mineral, Neuburg/Donau], 5.0 parts by weight of Naftolen®N 401 [plasticiser, Metallgesellschaft], 10.0 parts by weight of zinc oxide [vulcanization activator], 2.0 parts by weight of stearic acid [vulcanization activator], 2.0 parts by weight of sulfur [vulcanizing agent], 1.0 part by weight of Vulkacit®MOZ [vulcanization accelerator, Bayer], 0.25 part by weight of Vulkacit®Thiuram [vulcanization accelerator, […], to form a homogeneous mixture, the vulcanization system (sulfur, Vulkacit®MOZ and Vulkacit®Thiuram) not being added until the end of the mixing process. The mixture is vulcanized in electrical vulcanization presses at 150° C. until T95 is reached in the rheometer curves to form elastomer plates 2 mm thick, 21 cm long and 8.0 cm wide.
Some of the elastomer plates so obtained are tested for the action of ozone according to the ASTM standard D 3395-86 while subject to dynamic elongation. In this test the plates are first stored for 30 days in a standard atmosphere [23/50 SN-ISO 291]. Test specimens measuring 20 cm by 1 cm are then punched out and exposed to an ozone atmosphere for 96 hours (ozone content: 50 pphm; temperature: 40° C.; humidity: 50% rel.; elongation: 0 to 25%; elongation rate: 0.5 Hz; number of load cycles: approximately 173 000). The test plates are then assessed for crack formation according to ASTM D 3395-86. Grade 0 denotes no cracks; grade 1 denotes narrow flat cracks; grade 2 denotes moderately broad, moderately deep cracks, clearly visible; grade 3 denotes broad and deep cracks. The lower the grade number, the better the stabilization of the elastomer plates.

[8] = Light-colored SBR-vulcanisate (Example 23): ΔL-color after 3 weeks in diffuse daylight; settings: 2.0 phr stabilizer; 3 weeks at room temperature in diffuse daylight; scale 0 to 100, 100 = no discoloration; without stabilizer 97
Experimental: as §1
The remaining elastomer plates are stored for 3 weeks at room temperature in a standard laboratory atmosphere in diffuse daylight. The ΔL-color of those plates is then determined according to DIN 6167, which corresponds to a scale of from 0 to 100. No discoloration is indicated by a value of 100.

[9] = Stabilization of polycarbonate (oven ageing at 135° C., yellowness index and transmission); settings: 0.01% stabilizer; for Yellowness index prior to oven-ageing: 2 mm plates, ASTM D 1925-70; for Transmission in % prior to oven-aging / Transmission in % after 2000 hours at 135° C.: at 450 nm; for Transmission in % after 2000 hours at 135° C.: without stabilizer 76.4; for Yellowness index after 2000 hours at 135° C.: circulating air oven, without stabilizer 25.0
Experimental: This mixture is then extruded in a Schwabenthan extruder at a maximum of 280° C. The polymer string is then granulated. Using an injection moulding machine, plates having a layer thickness of 2 mm are then moulded from the granulate so obtained at a maximum of 300° C. […] Low YI values denote little discoloration, high YI values high discoloration of the patterns. […] The results are compiled in Tables 17 and 18.

CC(C)(C)c1cc2c(c(C(C)(C)C)c1)OC(=O)C2c1ccc(C#N)cc1 (stereo not shown) [Compound (106), 5,7-di-tert-butyl-3-(4-cyanophenyl)-3H-benzofuran-2-one]
melting point: 136 to 137 °C

CCCCCCOc1ccc(-c2nc(-c3ccccc3)nc(-c3ccccc3)n2)c(O)c1 [Tinuvin ®1577]
Yellowness index after 2500 h exposure to light [1]: 11.2

CC(C)(C)c1ccc(OP(Oc2ccc(C(C)(C)C)cc2C(C)(C)C)c2ccc(-c3ccc(P(Oc4ccc(C(C)(C)C)cc4C(C)(C)C)Oc4ccc(C(C)(C)C)cc4C(C)(C)C)cc3)cc2)c(C(C)(C)C)c1 [Sandostab ®P-EPQ, tetrakis(2,4-di-tert-butylphenyl)-4,4′-biphenylene diphosphonite]
Melt index after 5 extrusions ([2]; 280° C., stabilizer 0.050% by weight): 6.3 | Melt index after 5 extrusions ([2]; 320° C., stabilizer 0.050% by weight): 23.9 | Melt index after 5 extrusions ([2]; 340° C., stabilizer 0.050% by weight): 61.5

Cc1cc(CCC(=O)OCCOCCOCCOC(=O)CCc2cc(C)c(O)c(C(C)(C)C)c2)cc(C(C)(C)C)c1O [Irganox ®245]
Impact strength after 0 h ([3]; 0.05% stabilizer): 132 KJ/m^2 | Impact strength after 360 h ([3]; 0.05% stabilizer): 111 KJ/m^2 | Impact strength after 0 h ([3]; 0.10% stabilizer): 135 KJ/m^2 | Impact strength after 360 h ([3]; 0.10% stabilizer): 114 KJ/m^2

COC(=O)c1ccc(C2C(=O)Oc3c2cc(C(C)(C)C)cc3C(C)(C)C)cc1 (stereo not shown) [Compound (109), 5,7-di-tert-butyl-3-(4-methoxycarbonylphenyl)-3H-benzofuran-2-one]
Time until increase in torque [4]: 27.5 min | Cyan density at a magenta density of 1.5 [5]: 0.254 | Melt index after 3 extrusions [6]: 4.8

CC(C)(C)CC(C)(C)c1cc(Cc2cc(C(C)(C)CC(C)(C)C)cc(-n3nc4ccccc4n3)c2O)c(O)c(-n2nc3ccccc3n2)c1 [Tinuvin ®360]
Yellowness index after 2500 h exposure to light [1]: 16.6

CC(C)(C)c1cc2c(c(C(C)(C)C)c1)OC(=O)C2c1ccc(C(F)(F)F)cc1 (stereo not shown) [Compound (101), 5,7-di-tert-butyl-3-(4-trifluoromethyl-phenyl)-3H-benzofuran-2-one]
Time until increase in torque [4]: 27.5 min | Crack formation according to ASTM D 3395-86 [7]: grade 1 | ΔL-color according to DIN 6167 [8]: 95 | melting point: 127 to 128 °C | Melt index after 5 extrusions ([2]; 280° C., stabilizer 0.015% by weight): 8.5 | Melt index after 5 extrusions ([2]; 320° C., stabilizer 0.015% by weight): 19.6 | Melt index after 5 extrusions ([2]; 340° C., stabilizer 0.015% by weight): 22.5 | Yellowness index prior to oven-ageing [9]: 3.4 | Transmission in % prior to oven-aging [9]: 85.8% | Transmission in % after 2000 hours at 135° C. [9]: 81.3% | Yellowness index after 2000 hours at 135° C. [9]: 16.4 | Cyan density at a magenta density of 1.5 [5]: 0.253 | Melt index after 3 extrusions [6]: 4.7

CCCCCCCCCCCCCCCCCCOC(=O)c1ccc(C2C(=O)Oc3c2cc(C(C)(C)C)cc3C(C)(C)C)cc1 (stereo not shown) [Compound (112)]
Yellowness index prior to oven-ageing [9]: 3.5 | Transmission in % prior to oven-aging [9]: 85.9% | Transmission in % after 2000 hours at 135° C. [9]: 81.8% | Yellowness index after 2000 hours at 135° C. [9]: 14.3

CC(C)(c1ccccc1)c1cc(-n2nc3ccccc3n2)c(O)c(C(C)(C)c2ccccc2)c1 [Tinuvin ®234]
Yellowness index after 2500 h exposure to light [1]: 17.8

CC(C)(C)c1cc2c(c(C(C)(C)C)c1)OC(=O)C2c1ccc(F)cc1 (stereo not shown) [(105), 5,7-di-tert-butyl-3-(4-fluorophenyl)-3H-benzofuran-2-one]
Time until increase in torque [4]: 27.0 min | melting point: 146 to 147 °C | Melt index after 3 extrusions [6]: 4.7
